Molecules are shown by their SMILES. Square brackets hold non-standard residues; d marks the D form. Peptide text beside a SMILES is read from it. * marks the point of attachment. Dolaproine = CO[C@@H]([C@@H]1CCCN1)[C@@H](C)C(=O)O; Dil = CC[C@H](C)[C@H](NC)[C@@H](CC(=O)O)OC; X1 = C[C@@H](N*)[C@@H](O)c1ccccc1; NMeV = CN[C@H](C(=O)O)C(C)C

A short description of data set [1]: Stability of small molecule-linker conjugates in presence of excess free sulfhydryl (Cys), RP-HPLC. It counts as physicochemical. Conditions: PBS with Cys 0.41 mg/mL, pH=7.4, 37° C., 7 days; peak area at t=0 defined as 100%. On the procedure: In this example, the small molecule conjugates containing methyl maleate linker (Conjugate-1, Conjugate-2 and Conjugate-3, prepared in Example 9) and small molecule conjugates containing succinimide linker (Conjugate-1′, Conjugate-2′ and Conjugate-3′, prepared in Example 9) were evaluated to determine their stability situations in the presence of excess free sulfhydryl (Cys), in which the monitoring indicators were the changes of the remaining amounts of the small molecule conjugates containing two different linkers in the solution over time. The substances to be tested were each dissolved in DMSO, diluted with 10 times volume of PBS buffer containing cysteine (in which the concentration of Cys was 0.41 mg/mL, pH=7.4) and incubated in a 37° C. incubator; at t=0, another 200 μL of each sample was taken and stored at −80° C. as control. After each solution was incubated for 7 days, samples were taken separately, and RP-HPLC was used to detect the changes of their remaining amounts of substrate over time, in which the peak area of substrate at t=0 was defined as 100%.

Data set [2] has as its system BT-474. Put plainly: In vitro cytotoxicity test (CellTiter Glo, 96 h). It counts as cell-based, human. The conditions noted are these: BT-474, HER2-positive breast cancer; ADC DAR about 4. On the procedure: (§1) The selected cell lines included antigen HER2-positive breast cancer cell lines BT-474 and HCC1954, antigen HER2-positive ovarian cancer cell line SK-OV-3, antigen HER2-positive gastric cancer cell line NCI-N87, and antigen HER2-weakly positive breast cancer cell line MCF-7, and antigen HER2-negative breast cancer cell line MDA-MB-468 (purchased from ATCC).
a) Vial was gently shaken in a 37° C. water bath to be thawed; b) after all the contents had been thawed, the vial was taken out from the water bath, and disinfected by immersion in or spraying with 70% ethanol; c) the contents of the vial was transferred into a centrifuge tube containing 9 mL of complete medium (DMEM medium was used for cell lines BT-474 and MCF-7; RPMI1640 medium was used for cell lines NCI-N87, HCC1954 and MDA-MB-468; and Mccoy's 5A medium was used for cell line SK-OV-3; the media described below were the same as here), and centrifuged at about 200 xg for 5 minutes; d) the cell pellet was re-suspended in a medium and distributed into a 75 cm^2 culture flask; e) the resulting culture was incubated in a 37° C., 5% CO2 incubator. […]
(In general: In ATP-based viability assays light output follows the ATP content of the culture.)

The test system of data set [3] is HCC1954. Put plainly: In vitro cytotoxicity test (CellTiter Glo, 96 h). It counts as cell-based. Conditions: HCC1954, HER2-positive breast cancer; ADC DAR about 4. On the procedure:
as §1
(§2) a) Vial was gently shaken in a 37° C. water bath to be thawed; b) after all the contents had been thawed, the vial was taken out from the water bath, and disinfected by immersion in or spraying with 70% ethanol; c) the contents of the vial was transferred into a centrifuge tube containing 9 mL of complete medium (DMEM medium was used for cell lines BT-474 and MCF-7; RPMI1640 medium was used for cell lines NCI-N87, HCC1954 and MDA-MB-468; and Mccoy's 5A medium was used for cell line SK-OV-3; the media described below were the same as here), and centrifuged at about 200 xg for 5 minutes; d) the cell pellet was re-suspended in a medium and distributed into a 75 cm^2 culture flask; e) the resulting culture was incubated in a 37° C., 5% CO2 incubator.
(§3) a) The cells were passaged three times a week at a ratio of 1:4 in a medium containing 10% FBS (heat inactivated) and 1% penicillin/streptomycin solution; b) for the passaged cells, the adherent cells were firstly washed with 0.05% trypsin/EDTA solution (3 mL), then trypsin/EDTA (3 mL) was added and vortexed to coat the cells evenly. The resulting culture was incubated at 37° C. until the cells were detached (observed with microscope to verify that the cells were detached). An equal volume of cell culture medium was added to inactivate trypsin, the detached cells were collected, and centrifuged at 200×g for 5 minutes and then re-suspended in fresh culture medium.

Data set [4] relates to MCF-7. Kind of data set: In vitro cytotoxicity test (CellTiter Glo, 96 h). It is filed as cell-based. The conditions noted are these: MCF-7, HER2-weakly positive breast cancer; ADC DAR about 4. The protocol:
as §1, §2, §3

The subject of data set [5] is MDA-MB-468. Kind of data set: In vitro cytotoxicity test (CellTiter Glo, 96 h). Conditions: MDA-MB-468, HER2-negative breast cancer; ADC DAR about 4. It is filed as cell-based. The protocol: as §1, §2, §3
For data set [6], the system named is NCI-N87. Kind of data set: In vitro cytotoxicity test (CellTiter Glo, 96 h). It counts as cell-based. Conditions: NCI-N87, HER2-positive gastric cancer; ADC DAR about 4. On the procedure:
as §1, §2, §3

Data set [7] deals with SK-OV-3. Put plainly: In vitro cytotoxicity test (CellTiter Glo, 96 h). Conditions: Sk-OV-3, HER2-positive ovarian cancer; ADC DAR about 4. It counts as cell-based. The protocol: as §1, §2, §3

For the molecule `COC(=O)CC(SC[C@H](NC(C)=O)C(=O)NCc1ccccc1)C(=O)NCCCCCC(=O)Nc1ccccc1` (stereo partly drawn) [Conjugate-1], the Remaining amount in data set [1] amounted to 96%. For the molecule `CC(=O)N[C@@H](CSC1CC(=O)N(CCCCCC(=O)Nc2ccccc2)C1=O)C(=O)NCc1ccccc1` (stereo partly drawn) [Conjugate-1′], the Remaining amount in data set [1] worked out at 53%. For the molecule `COC(=O)CC(SCCO)C(=O)NCCCCCC(=O)Nc1ccccc1` (stereo not drawn) [Conjugate-2], in data set [1], the Remaining amount came to 98%.

With `O=C(CCCCCN1C(=O)CC(SCCO)C1=O)Nc1ccccc1` (stereo not drawn) [Conjugate-2′], in data set [1], the Remaining amount amounted to 61%. The same measure, in the same setting: the result for `COC(=O)CC(SCc1ccccc1)C(=O)NCCCCCC(=O)Nc1ccccc1` (stereo not drawn) [Conjugate-3] reads 93%; that for `O=C(CCCCCN1C(=O)CC(SCc2ccccc2)C1=O)Nc1ccccc1` (stereo not drawn) [Conjugate-3′], 49%. For `CC[C@H](C)[C@@H]([C@@H](CC(=O)N1CCC[C@H]1[C@H](OC)[C@@H](C)C(=O)N[C@H](C)[C@@H](O)c1ccccc1)OC)N(C)C(=O)[C@@H](NC(=O)[C@@H](NC)C(C)C)C(C)C` [MMAE, Monomethyl-auristatin E] (H-[NMeV]V[Dil][Dolaproine]-X1), the IC50 stood at 299 pM in data set [2]; 116 pM in data set [3]; 223 pM in data set [4]; 66.9 pM in data set [5]; 161 pM in data set [6]; 644 pM in data set [7].

For orientation: IC50 means the concentration that gives 50% inhibition.
